Test results as given in article PMC10052652 (Molecules, 2023).
Read-outs that look alike come from different tables or passages of the source.

Legend:
[1] = target: T1, acetylcholinesterase (AChE) (Homo sapiens, UniProt P22303); test: biochemical
Experimental: The enzymatic activity was assessed via a modified colorimetric Ellman′s method. First, 50 µL of Tris-HCl buffer (pH 8), 25µL of a buffer solution of the sample (50 µg/mL), and 25 µL of an acetylcholinesterase (AChE) enzyme solution containing 2.8 U/mL were mixed. A reaction was then initiated via the addition of 125 µL of 3 mM […]. After incubation for 15 min at 25 °C, 25 µL of a solution of iodide acetylthiocholine15 mM was added to a 96-well microplate. […] Inhibition (%) was calculated in the following way: Inhibition (%) = [(A control − A sample)/A control] × 100, where (A sample) is the absorbance of the molecule containing the reaction and (A control) is the absorbance of the reaction control. Tests were carried out in triplicate.

SKOV-3 cells = test: Cytotoxic activity, MTT assay, SKOV-3; format: cell-based, human
[2] = target: T2, superoxide dismutase (SOD) (Homo sapiens, UniProt P00441); test: biochemical; settings: read-out: Anti SOD IC50
Experimental: Pyrogallol auto-oxidation due to oxygen in the air can be inhibited by an enzyme that is naturally present in the body: superoxide dismutase (SOD). Furthermore, variations in the pyrogallol auto-oxidation rate in the presence of SOD were evaluated. Tests were carried out in triplicate. The objective was to find an inhibitor of the auto-oxidation of pyrogallol in the presence of a SOD enzyme solution. Samples were tested at a concentration of 50 µg/mL, followed by incubation for 4 min at 25 °C. […] The self-oxidation of pyrogallol was evaluated in the absence of the enzyme. For this, 30 µL of pyrogallol was added to 120 µL of tris buffer (in place of the SOD) (pH 8.5), then followed by the same steps of incubating a positive control (without the molecule); this was performed in the presence of 5% of DMSO to evaluate the percentage of SOD inhibition activity on the auto-oxidation of pyrogallol.

[3] = target: T1, acetylcholinesterase (AChE); format: biochemical; settings: at 100 µM
MCF7 cells = test: Cytotoxic activity, MTT assay, MCF7; format: cell-based, human
Experimental: Optical density was measured at 540 nm. All tests were established in triplicate.

HCT116 cells = test: Cytotoxic activity, MTT assay, HCT116; format: cell-based, human; settings: Homo sapiens, HCT-116, 72 h, read-out: IC50 HCT116, MTT, 72 h
Experimental: (§1) The cancer cell lines used in this study were HCT116 (colorectal carcinoma), IGROV1 (ovarian cancer), OVCAR3 (ovarian cancer), and MCF7 (mammary gland/breast cancer). […] Cell lines were maintained in culture and were incubated at 37 °C in an incubator with 5% CO2 in a humidified atmosphere. All tests were established at 80% of confluence, and viability was estimated with a trypan blue exclusion assay.
(§2) The cytotoxic activities of molecules against cancer cell lines were evaluated using an MTT assay. The MTT colorimetric assay was performed using 96-well plates. Cells were seeded in a 96-well plate, at a concentration of 10 × 10^3 cells/well for HCT116 and 12 × 10^3 cells/well for MCF7, IGROV1, and OVAR. Adherent cells were dispatched and incubated at 37 °C overnight in a 5% CO2-enriched atmosphere. […] After that, the medium was removed, and cells were treated with 50 µL of 3-(4,5-dimethylthazolk-2-yl)-2,5-diphenyl tetrazolium bromide (MTT) solution (3 mg/mL in PBS) at 37 °C for 20 to 40 min. To dissolve the […], we added 80 µL of 100% DMSO. Optical density was measured at 540 nm. All tests were established in triplicate. […]

xanthine oxidase (XOD) [4] = target: T3, xanthine oxidase (XOD) (Homo sapiens, UniProt P47989); test: biochemical; settings: read-out: Anti XOD IC50
Experimental: Anti-xanthine oxidase activity was assayed spectrophotometrically under aerobic conditions. First, 50 µL (50 µg/mL) of samples were added to 60 µL of phosphate buffer (pH 7.5) and 30 µL of xanthine oxidase enzyme solution (0.01 units/mL in phosphate buffer; pH 7.5). After pre-incubation at 25 °C for 15 min, the reaction was initiated by the addition of 60 µL of xanthine substrate solution (prepared in the same buffer). The assay mixture was incubated at 25 °C for 5 min. […] The assay was performed in triplicate. […] Tests were carried out in triplicate.

[5] = DPPH radical scavenging assay
Experimental: DPPH• (1-1-diphenyl 2-picryl hydrazyl) assay
This method is based on the spectrophotometric assay using the stable radical, DPPH•, as a reagent. First, 20 µL of each sample (4 mg/mL) was mixed with 180 µL of 0.1 mM DPPH• in methanol, in plates, after an incubation of 25 min in the dark. Absorbance was measured at 517 nm. Ascorbic acid was used as the reference compound. The radical-scavenging activities of molecules, expressed as a percentage inhibition of DPPH•, were calculated according to the following formula: Inhibition (%) = [(A control − A sample)/A control] × 100 where A is the absorbance determined at 517 nm. The absorbance of the solvent and DPPH• radical without the molecule was measured as the control.

α-amylase = target: T4, α-amylase (Homo sapiens, UniProt P04746); test: Anti-α-amylase activity (starch/DNS); settings: for Anti α-Amylase %: at 100 µM
T4 sequence (P04746 16-511): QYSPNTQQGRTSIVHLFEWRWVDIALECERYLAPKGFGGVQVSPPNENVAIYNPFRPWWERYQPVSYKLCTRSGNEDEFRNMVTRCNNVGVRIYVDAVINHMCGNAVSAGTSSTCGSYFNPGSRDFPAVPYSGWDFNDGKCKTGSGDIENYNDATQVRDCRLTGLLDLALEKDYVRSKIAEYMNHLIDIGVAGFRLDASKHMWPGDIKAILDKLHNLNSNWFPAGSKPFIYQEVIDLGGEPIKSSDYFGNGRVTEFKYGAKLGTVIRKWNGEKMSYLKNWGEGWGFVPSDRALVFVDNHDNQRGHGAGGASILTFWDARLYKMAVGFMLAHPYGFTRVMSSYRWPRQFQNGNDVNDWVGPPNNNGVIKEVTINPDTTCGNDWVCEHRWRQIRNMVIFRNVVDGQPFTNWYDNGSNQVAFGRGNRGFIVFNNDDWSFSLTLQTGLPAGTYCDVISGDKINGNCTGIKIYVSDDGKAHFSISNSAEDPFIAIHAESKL
Experimental: The α-amylase inhibitory activity (%) value was defined as the percentage decrease in the maltose production rate over the control. […] After 15 min, this mixture was removed from the water bath and diluted with 900 µL of distilled water. The anti-α-amylase activity was determined by measuring the absorbance at 540 nm. Blank incubations were determined as the absorbance produced by samples where the enzyme was replaced with a buffer solution. […] The IC50 values were calculated from the mean values of the percentage of α--amylase inhibition data, determined in triplicate.

[6] = ABTS radical cation scavenging assay; settings: for ABTS Assay %: at 100 µM
Experimental: ABTS (2,2′-azinobis-3-ethylbenzothiazoline-6-sulfonate) assay
The radical scavenging capacity of antioxidants for the ABTS radical cation was evaluated following this method: ABTS was prepared by adding 7 mM solution of ABTS at pH 7.4 (5 mM NaH2PO4, 5 mM Na2HPO4, and 154 mM NaCl) with 2.5 mM potassium persulfate. The mixture was stored at room temperature for 16 h in the dark before use and prepared […]. Once diluted with persulfate buffer, the absorbance of the mixture yielded an absorbance value of 0.70 ± 0.05 units at 734 nm. Then, 20 µL of each tested sample was mixed with fresh ABTS solution (180 µL), then the absorbance was measured 6 min after the initial mixing. Ascorbic acid was used as a standard. The capacity of free radical scavenging was expressed as a percentage of the inhibition values. The percentage of inhibition is calculated using the same expression employed in the DPPH assay.

OVCAR-3 cells = test: Cytotoxic activity, MTT assay, OVCAR-3; format: cell-based; settings: Homo sapiens, OVCAR-3, 72 h, read-out: IC50 OVCAR-3
Experimental: as §1, §2

[7] = target: T2, superoxide dismutase (SOD); format: biochemical; settings: at 100 µM
xanthine oxidase (XOD) [8] = target: T3, xanthine oxidase (XOD); format: biochemical; settings: at 100 µM
[9] = Homo sapiens, SK-OV-3, 72 h, read-out: IC50 SKOV-3, MTT, 72 h
[10] = read-out: IC50 SKOV-3, MTT, 72 h

T1 sequence (P22303 32-614, species assumed): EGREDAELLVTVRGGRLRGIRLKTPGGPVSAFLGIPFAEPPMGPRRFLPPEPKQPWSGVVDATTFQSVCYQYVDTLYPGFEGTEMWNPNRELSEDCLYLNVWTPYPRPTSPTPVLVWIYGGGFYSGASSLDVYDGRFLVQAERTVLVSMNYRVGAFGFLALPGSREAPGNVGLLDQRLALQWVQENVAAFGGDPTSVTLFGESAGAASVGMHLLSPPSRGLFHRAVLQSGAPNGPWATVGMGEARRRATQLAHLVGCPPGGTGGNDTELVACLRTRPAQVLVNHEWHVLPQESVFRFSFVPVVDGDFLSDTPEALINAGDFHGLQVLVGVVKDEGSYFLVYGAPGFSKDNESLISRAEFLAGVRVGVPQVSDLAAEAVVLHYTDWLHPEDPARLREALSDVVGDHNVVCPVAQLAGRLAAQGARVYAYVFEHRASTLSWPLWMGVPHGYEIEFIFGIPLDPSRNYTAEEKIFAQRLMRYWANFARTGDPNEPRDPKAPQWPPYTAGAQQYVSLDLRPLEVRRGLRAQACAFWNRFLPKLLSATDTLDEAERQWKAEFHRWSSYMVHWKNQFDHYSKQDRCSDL
T3 sequence (P47989 whole entry, species assumed): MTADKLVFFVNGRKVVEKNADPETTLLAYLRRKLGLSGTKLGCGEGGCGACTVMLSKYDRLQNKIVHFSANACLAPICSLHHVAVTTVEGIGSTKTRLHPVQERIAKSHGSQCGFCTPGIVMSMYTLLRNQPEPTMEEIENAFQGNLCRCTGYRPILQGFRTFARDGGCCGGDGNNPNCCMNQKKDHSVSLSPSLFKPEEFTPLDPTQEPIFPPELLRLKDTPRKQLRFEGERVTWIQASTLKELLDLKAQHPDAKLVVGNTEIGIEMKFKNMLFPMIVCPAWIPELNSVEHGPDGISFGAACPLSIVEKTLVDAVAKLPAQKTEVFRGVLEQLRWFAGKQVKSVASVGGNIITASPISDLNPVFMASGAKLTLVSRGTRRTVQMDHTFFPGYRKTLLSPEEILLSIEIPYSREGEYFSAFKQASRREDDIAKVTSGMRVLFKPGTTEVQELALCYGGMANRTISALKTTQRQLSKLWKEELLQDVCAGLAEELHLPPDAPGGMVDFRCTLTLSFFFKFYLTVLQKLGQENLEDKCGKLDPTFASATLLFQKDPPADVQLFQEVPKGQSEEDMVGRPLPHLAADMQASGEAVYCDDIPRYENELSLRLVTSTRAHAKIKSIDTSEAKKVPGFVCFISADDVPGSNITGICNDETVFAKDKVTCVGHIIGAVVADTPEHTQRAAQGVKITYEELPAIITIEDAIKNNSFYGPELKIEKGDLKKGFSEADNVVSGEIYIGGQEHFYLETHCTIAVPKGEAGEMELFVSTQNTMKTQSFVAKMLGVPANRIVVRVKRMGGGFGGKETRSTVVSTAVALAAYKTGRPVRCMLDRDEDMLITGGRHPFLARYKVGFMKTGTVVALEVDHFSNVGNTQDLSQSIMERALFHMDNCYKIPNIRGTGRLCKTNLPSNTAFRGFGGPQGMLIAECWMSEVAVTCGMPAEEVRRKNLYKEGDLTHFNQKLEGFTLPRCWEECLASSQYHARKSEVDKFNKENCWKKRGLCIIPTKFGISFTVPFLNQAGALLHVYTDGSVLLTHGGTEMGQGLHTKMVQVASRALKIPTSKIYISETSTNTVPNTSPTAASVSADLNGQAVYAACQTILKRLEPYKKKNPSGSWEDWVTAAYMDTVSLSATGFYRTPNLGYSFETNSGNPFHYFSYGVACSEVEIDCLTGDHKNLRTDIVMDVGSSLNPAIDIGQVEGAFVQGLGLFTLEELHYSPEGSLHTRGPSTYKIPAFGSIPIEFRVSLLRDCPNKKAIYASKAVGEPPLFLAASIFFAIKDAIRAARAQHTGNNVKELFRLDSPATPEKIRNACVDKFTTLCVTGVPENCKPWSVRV
T2 sequence (P00441 whole entry): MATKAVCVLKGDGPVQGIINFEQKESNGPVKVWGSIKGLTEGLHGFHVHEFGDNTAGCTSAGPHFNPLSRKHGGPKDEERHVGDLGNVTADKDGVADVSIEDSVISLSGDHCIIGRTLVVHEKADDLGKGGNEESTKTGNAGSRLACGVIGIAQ

Row | SMILES | IC50 [1] | IC50 (SKOV-3 cells; [9]) | IC50 [2] | Anti ACHE % [3] | IC50 (MCF7 cells; Homo sapiens, MCF7, 72 h) | IC50 (HCT116 cells) | IC50 (xanthine oxidase (XOD) [4]) | IC50 [5] | IC50 (α-amylase) | Anti α-Amylase % (α-amylase) | IC50 [6] | IC50 (OVCAR-3 cells) | Anti SOD % [7] | Anti XOD % (xanthine oxidase (XOD) [8]) | IC50 ([1]; read-out: Anti ACHE IC50) | ABTS Assay % [6] | IC50 (SKOV-3 cells; [10]) | IC50 (MCF7 cells; 72 h)
1 | CC1OC(OCC2OC(Oc3c(-c4ccc(OCCO)c(OCCO)c4)oc4cc(OCCO)cc(O)c4c3=O)C(O)C(O)C2O)C(O)C(O)C1O (stereo not drawn) [Molecule M6, trihydroxyethylrutin] | > 100 µM | > 50 µM | > 50 µM | 33.7 ± 3.7% | > 50 µM | > 50 µM | > 100 µM | > 100 µM | > 100 µM | 49.4 ± 5.1% | 24.5 ± 0.1 µM | > 50 µM | 53.7 ± 2.1% |  |  |  |  | 
2 | O=c1cc(-c2cccc(O)c2)oc2c1ccc1ccccc12 [Molecule M10, 3′-hydroxy-a-naphthoflavone] |  | > 50 µM | > 100 µM | 54.7 ± 1.9% | > 50 µM | > 50 µM | > 50 µM | > 100 µM | 2.3 ± 0.1 µM | 69.4 ± 1.6% | > 100 µM | > 50 µM | 39.4 ± 1.9% | 58.8 ± 0.3% | > 50 µM | 11.0 ± 1.0% |  | 
3 | COc1cccc(-c2cc(=O)c3c(O)cccc3o2)c1 [Molecule M11, 5-hydroxy-3′-methoxyflavone] |  | > 100 µM | > 100 µM | 52.6 ± 4.2% | > 100 µM | > 50 µM | > 100 µM | > 100 µM | 8.3 ± 0.2 µM | 124.8 ± 15.3% | > 100 µM | > 50 µM | 9.4 ± 3.1% |  | > 50 µM | 17.7 ± 0.7% | > 50 µM | 
4 | COc1cc(O)c2c(=O)cc(-c3ccc(O)cc3)oc2c1 [Molecule M12, 4′,5-dihydroxy-7-methoxyflavone] | > 50 µM | 44.7 ± 1.2 µM | > 100 µM | 51.0 ± 0.3% | > 50 µM | 38.5 ± 1.2 µM | 1.2 ± 0.1 µM | > 100 µM | 9 ± 0.1 µM | 111.7 ± 0.8% | > 100 µM | 47 ± 1.4 µM | 42.1 ± 5.3% | 58.2 ± 3.1% |  | 30.3 ± 0.6% |  | 
5 | O=c1cc(-c2cccc(O)c2)oc2cccc(O)c12 [Molecule M14, 5,3′-dihydroxyflavone] |  | > 100 µM | > 100 µM | 55.0 ± 1.9% | > 100 µM |  | 2 ± 0.1 µM | > 100 µM | 6.7 ± 0.9 µM | 109.6 ± 1.7% | > 100 µM | > 50 µM | 5.7 ± 2.5% | 71.3 ± 4.7% | > 50 µM | 16.9 ± 0.3% | > 50 µM | > 50 µM
6 | Cc1cccc(COc2cc(O)c3c(=O)cc(-c4ccccc4)oc3c2)c1 [Molecule M15, 5-hydroxy-7-((3-methylbenzyl)oxy)-2-phenyl-4h-chromen-4-one] |  | > 50 µM | > 100 µM | 55.3 ± 2.7% | > 50 µM | > 50 µM | > 100 µM | > 100 µM | > 100 µM | 46.2 ± 4.4% | > 100 µM | 45.6 ± 1.4 µM | 26.5 ± 3.3% |  | > 50 µM | 25.6 ± 0.7% |  | 
7 | O=C1O[C@H]([C@@H](O)CO)C(O)=C1O [Vitamin C, Ascorbic acid, reference compound] |  |  |  |  |  |  |  | 2.3 ± 0.2 µM |  |  | 2.2 ± 0.2 µM |  |  |  |  |  |  | 
